Measured values: US8691761B2, “Somatostatin receptor 2 antagonists” (priority 2006, dated 2014)
“Also recorded” adds a separate entry of the source. One block for each molecule: values may come before it. Bridge positions count the residues as written; N and C are the ends. Square brackets hold non-standard residues; d marks the D form. Peptide text beside a SMILES is read from it. * marks the point of attachment. DOTA = O=C(O)CN1CCN(CC(=O)O)CCN(CC(=O)*)CCN(CC(=O)O)CC1; dPhe(4-NHCONH2) = NC(=O)Nc1ccc(C[C@@H](N)C(=O)O)cc1; Dihydroorotyl(S) = O=C1C[C@@H](C(=O)*)NC(=O)N1; Phe(4-Cl) = N[C@@H](Cc1ccc(Cl)cc1)C(=O)O; Phe(4-NH2) = Nc1ccc(C[C@H](N)C(=O)O)cc1; 2Nal = N[C@@H](Cc1ccc2ccccc2c1)C(=O)O; NMeK = CN[C@@H](CCCCN)C(=O)O

Tests used:
[1] = target: T1, sst2 (Homo sapiens, UniProt P30874); assay: Calcium release assay in HEK-sst2 cells (Fluo-4NW); type: cell-based; design: expressed in transfected cells; host or cells: HEK293 (HEK-sst2); conditions: n ≧ 2
Protocol: Calcium release assay. Intracellular calcium release was measured in HEK-sst2 using the Fluo-4NW Calcium Assay kit as described previously (Magrys, et al. “The role of anti-alpha-enolase autoantibodies in pathogenicity of autoimmune-mediated retinopathy.” J. Clin. Immunol. 2007, 27, 181-192; Michel et al. “The Nef protein of human immunodeficiency virus is a broad-spectrum modulator of chemokine receptor cell surface levels that acts independently of classical motifs for receptor endocytosis and Galphai signaling.” Mol. Biol. Cell. 2006, 17, 3578-3590). In brief, HEK-sst2 cells were seeded (25,000 cells per well) in poly-D-lysine (20 μg/mL) coated 96 well plates and cultured for 1 day at 37° C. and 5% CO2 in culture medium. At the day of the experiment, the cells were washed with assay buffer (1×HBSS, 20 mM HEPES) containing 2.5 mM probenecid, and then loaded with 100 μL/well Fluo-4NW dye in assay buffer containing 2.5 mM probenecid for 30 min at 37° C. and 5% CO2 and then for further 30 min at room temperature. To measure the intracellular calcium mobilization after stimulation with the SRIF analogues to be tested, the dye-loaded cells were transferred to a SpectraMax M2^e (Molecular Devices, Sunnyvale, Calif.). Intracellular calcium mobilization was recorded in a kinetic for 60 sec at room temperature monitoring fluorescence emission at 520 nm (with λex=485 nm) in the presence of the analogues at the concentrations indicated. Maximum fluorescence (Fmax) was measured after the addition of 25 μM ionomycin. Baseline (control) measurements were taken for dye-loaded, untreated cells. Data are shown as percentage of Fmax (% Fmax) as reported previously. (Magrys, et al. J. Clin. Immunol. 2007, 27, 181-192; Michel et al. Mol. Biol. Cell. 2006, 17, 3578-3590). All experiments were repeated at least three times in triplicate.
Target sequence in this assay (P30874 whole entry): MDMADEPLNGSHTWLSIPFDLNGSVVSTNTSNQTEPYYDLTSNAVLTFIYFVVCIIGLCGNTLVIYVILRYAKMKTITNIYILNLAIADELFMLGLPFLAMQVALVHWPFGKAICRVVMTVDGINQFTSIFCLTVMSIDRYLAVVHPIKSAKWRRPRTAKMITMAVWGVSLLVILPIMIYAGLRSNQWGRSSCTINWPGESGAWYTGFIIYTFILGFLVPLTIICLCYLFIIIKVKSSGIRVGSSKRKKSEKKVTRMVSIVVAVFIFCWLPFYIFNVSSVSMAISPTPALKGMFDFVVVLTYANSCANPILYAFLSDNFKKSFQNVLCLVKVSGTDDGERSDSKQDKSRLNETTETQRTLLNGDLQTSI

[2] = target: T2, human sst2A receptor (Homo sapiens, UniProt P30874); assay: Immunofluorescence-based sst2 internalization assay in HEK-sst2 cells; type: cell-based; conditions: n ≧ 2
T2 construct: expressed in transfected cells; host or cells: HEK293 (HEK-sst2)
T2 sequence (P30874 whole entry): as above
Outline: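 HEK-sst2 cells treated with vehicle, 100 nM [Tyr^3]-octreotide, octreotide plus 100-fold excess test analogue, or test analogue alone at 10 μM. Receptor internalization visualized by immunofluorescence microscopy with sst2-specific antibody R2-88.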

[3] = target: T7-epitope-tagged human sst2 (Homo sapiens, UniProt P30874); assay: Quantitative assay for sst2 internalization (ELISA) in HEK-sst2 cells; type: cell-based; conditions: FIG. 3
Chain of T7-epitope-tagged human sst2 (P30874 whole entry): as above
Protocol: Quantitative assay for sst2 internalization (ELISA) Receptor internalization was determined using an ELISA to quantitate T7-epitope-tagged human sst2 on the cell surface. HEK-sst2 cells were seeded on poly-D-lysine (20 μg/mL) coated 24-well plates (250,000 cells per well) in growth medium and cultured for 1 day at 37° C. and 5% CO2. […] After washing with DMEM-LH to remove unbound antibody, cells were incubated for 30 min at 37° C. and 5% CO2 either without or with the ligands added at the concentrations indicated. Incubations were terminated by placing the plates in an ice bath. Cells were then washed twice with cold PBS and fixed for 10 min at room temperature with 3% paraformaldehyde in PBS (pH 7.4). […] After 3 additional washes with PBS, antibody binding was measured by adding 0.3 mL substrate mix for horseradish peroxidase (ABTS). The OD405 was measured after an approximately 30 min incubation at room temperature. The amount of sst2 remaining at the cell surface after ligand treatment was calculated as the absorbance measured in treated cells expressed as a percentage of the absorbance in untreated cells. Nonspecific absorbance was determined in experiments in which HEK293-sst2 cells were incubated without the anti-T7 antibody. […]

[4] = system: HEK-sst2 tumors; assay: In vivo biodistribution of radiolabeled peptides in nude mice bearing HEK-sst2 tumors
Protocol: (§1) The following protocol was used to determine biodistribution
(§2) Confirmation that the transfected tumors were indeed expressing solely sst2 was obtained in resected tumor samples tested in vitro with somatostatin receptor autoradiography using subtype selective ligands.
(§3) The biodistribution of was studied at 4 h or 24 h after injection. The organs of interest were collected, blotted dry, weighed, their radioactivity measured and the percentage of injected activity per gram (% IA/g) calculated.

[5] = in vivo; conditions: female, athymic nude, mouse, iv, total radioactivity, biodistribution
Protocol: as §1, §2, §3

[6] = system: HEK-sst2 tumors; conditions: female, athymic nude, mouse, in vivo, iv, 4 h
Protocol: as §1, §2, §3

[7] = target: sst3 (Homo sapiens, UniProt P32745); conditions: literature value compared with own IC50; read-out: reported value at sst3 (Hocart et al.); cited from earlier work
Chain of sst3 (P32745 whole entry, species assumed): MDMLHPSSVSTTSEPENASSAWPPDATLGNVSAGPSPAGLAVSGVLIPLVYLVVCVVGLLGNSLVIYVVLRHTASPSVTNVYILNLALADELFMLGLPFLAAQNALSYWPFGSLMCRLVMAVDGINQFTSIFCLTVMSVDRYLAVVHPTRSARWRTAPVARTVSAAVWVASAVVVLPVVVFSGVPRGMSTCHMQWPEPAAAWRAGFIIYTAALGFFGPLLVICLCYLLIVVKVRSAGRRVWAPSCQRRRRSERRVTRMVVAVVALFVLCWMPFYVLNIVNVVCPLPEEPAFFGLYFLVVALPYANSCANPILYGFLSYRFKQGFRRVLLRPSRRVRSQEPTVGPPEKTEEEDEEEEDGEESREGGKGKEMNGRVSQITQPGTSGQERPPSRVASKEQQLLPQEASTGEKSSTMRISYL

[8] = target: T1, sst2; conditions: cited from earlier work
Target sequence in this assay (P30874 whole entry, species assumed): as the sequence (P30874 whole entry) above

[9] = target: T3, hSSTR3 (Homo sapiens, UniProt P32745); assay: Receptor autoradiography, displacement of 125I-[Leu8,D-Trp22,Tyr25]-SRIF-28 from membrane pellet sections; type: binding; conditions: Table 3; mean ± SEM when N ≧ 3; read-out: sst3 binding affinity (IC50)
T3 construct: expressed in transfected cells; host or cells: CHO-K1 or CCL39 cells
T3 sequence (P32745 whole entry): as the sequence (P32745 whole entry, species assumed) above

[10] = target: T4, hSSTR1 (Homo sapiens, UniProt P30872); assay: as above; type: binding; conditions: Table 3; mean ± SEM when N ≧ 3; read-out: sst1 binding affinity (IC50)
T4 construct: expressed in transfected cells; host or cells: CHO-K1 or CCL39 cells
T4 sequence (P30872 whole entry): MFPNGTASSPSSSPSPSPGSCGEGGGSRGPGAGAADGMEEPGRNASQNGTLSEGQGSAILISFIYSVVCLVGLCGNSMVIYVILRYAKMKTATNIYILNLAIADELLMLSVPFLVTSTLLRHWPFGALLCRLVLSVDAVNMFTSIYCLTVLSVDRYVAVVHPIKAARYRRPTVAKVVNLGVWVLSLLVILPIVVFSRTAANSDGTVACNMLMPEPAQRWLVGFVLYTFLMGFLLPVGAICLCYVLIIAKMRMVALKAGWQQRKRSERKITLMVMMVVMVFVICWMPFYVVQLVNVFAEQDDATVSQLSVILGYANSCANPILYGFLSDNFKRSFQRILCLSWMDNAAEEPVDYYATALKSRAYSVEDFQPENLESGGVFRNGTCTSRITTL

[11] = target: T5, hSSTR2 (Homo sapiens, UniProt P30874); assay: as above; type: binding; conditions: Table 3; mean ± SEM when N ≧ 3; read-out: sst2 binding affinity (IC50)
T5 construct: expressed in transfected cells; host or cells: CHO-K1 or CCL39 cells
T5 sequence (P30874 whole entry): as the sequence (P30874 whole entry) above

[12] = target: T6, hSSTR4 (Homo sapiens, UniProt P31391); assay: as above; type: binding; conditions: Table 3; mean ± SEM when N ≧ 3; read-out: sst4 binding affinity (IC50)
T6 construct: expressed in transfected cells; host or cells: CHO-K1 or CCL39 cells
T6 sequence (P31391 whole entry): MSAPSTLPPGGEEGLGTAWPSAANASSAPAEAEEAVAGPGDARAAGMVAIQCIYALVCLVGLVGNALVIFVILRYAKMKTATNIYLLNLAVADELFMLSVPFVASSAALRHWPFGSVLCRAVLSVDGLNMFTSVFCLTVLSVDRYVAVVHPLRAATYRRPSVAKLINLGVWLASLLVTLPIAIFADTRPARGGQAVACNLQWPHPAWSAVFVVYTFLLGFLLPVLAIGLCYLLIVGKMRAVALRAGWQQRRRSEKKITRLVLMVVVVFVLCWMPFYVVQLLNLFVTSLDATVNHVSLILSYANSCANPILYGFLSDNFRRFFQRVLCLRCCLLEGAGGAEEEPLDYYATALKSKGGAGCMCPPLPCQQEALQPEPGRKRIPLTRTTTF

Calcium release tested in vitro in HEK-sst2 cells (function) [1]: Antagonist | function in the ELISA internalization assay [3]: antagonistic properties | tumor to kidney ratio (in words) ([4]; mouse, in vivo): excellent tumor to kidney ratio
Structure (SMILES): C[C@@H](O)[C@@H]1NC(=O)[C@H](CCCCN)NC(=O)[C@@H](Cc2c[nH]c3ccccc23)NC(=O)[C@H](Cc2ccc(O)c(I)c2)NC(=O)[C@H](NC(=O)[C@H](Cc2ccc([N+](=O)[O-])cc2)NC(=O)CN2CCN(CC(=O)O)CCN(CC(=O)O)CCN(CC(=O)O)CC2)CSSC[C@@H](C(=O)N[C@H](Cc2ccc(O)cc2)C(N)=O)NC1=O [Peptide No. 32, DOTA-pNO2Phe-c[DCys-ITyr-DTrp-Lys-Thr-Cys]-DTyr-NH2]
sst2-internalization tested in vitro in HEK-sst2 cells (function) [2]: antagonistic property; also recorded: Antagonist

Structure (SMILES): C[C@@H](O)[C@@H]1NC(=O)[C@H](CCCCN)NC(=O)[C@@H](Cc2ccc(NC(N)=O)cc2)NC(=O)[C@H](Cc2ccc(NC(=O)[C@@H]3CC(=O)NC(=O)N3)cc2)NC(=O)[C@H](NC(=O)[C@H](Cc2ccc(Cl)cc2)NC(=O)CN2CCN(CC(=O)O)CCN(CC(=O)O)CCN(CC(=O)O)CC2)CSSC[C@@H](C(N)=O)NC1=O [^111In-labelled Peptide No. 33, metal not drawn] ({DOTA}-[Phe(4-Cl)][dC][Phe(4-NH2)](Dihydroorotyl(S))[dPhe(4-NHCONH2)]KTC-NH2; disulfide 2-7)
tissue uptake at 4 h ([5]; adrenal): 0.23 %ID/g | tissue uptake at 4 h ([5]; blood): 0.12 %ID/g | tissue uptake at 4 h ([5]; bone): 0.04 %ID/g | tissue uptake at 4 h ([5]; heart): 0.05 %ID/g | tissue uptake at 4 h ([5]; liver): 0.32 %ID/g | tissue uptake at 4 h ([5]; muscle): 0.02 %ID/g | tissue uptake at 4 h ([5]; pancreas): 0.05 %ID/g | tissue uptake at 4 h ([5]; pituitary): 0.14 %ID/g | tissue uptake at 4 h ([5]; sst2 tumor): 0.22 %ID/g | tissue uptake at 4 h ([5]; sst3 tumor): 0.14 %ID/g | biodistribution, intestine [6]: 0.09 % IA/g | biodistribution, kidney [6]: 10.3 % IA/g | biodistribution, lung [6]: 0.21 % IA/g | biodistribution, spleen [6]: 0.2 % IA/g | biodistribution, stomach [6]: 0.12 % IA/g | effect of excess unlabelled compound on binding in vivo ([4]; 1000- or 2000-fold excess of unlabelled compound): inhibited binding

Calcium release tested in vitro in HEK-sst2 cells (function) [1]: Antagonist | sst2-internalization tested in vitro in HEK-sst2 cells (function) [2]: Antagonist
Structure (SMILES): C[C@@H](O)[C@@H]1NC(=O)[C@H](CCCCN)NC(=O)[C@@H](Cc2c[nH]c3ccccc23)NC(=O)[C@H](Cc2ccc(O)cc2)NC(=O)[C@H](NC(=O)[C@@H](N)Cc2ccc(Cl)cc2)CSSC[C@@H](C(=O)N[C@@H](Cc2ccc3ccccc3c2)C(N)=O)NC1=O [compound 7, H2N-Cpa-c[DCys-Tyr-DTrp-Lys-Thr-Cys]-2Nal-NH2, reference compound] (H-[Phe(4-Cl)][dC]Y[dW]KTC[2Nal]-NH2; disulfide 2-7)
IC50 [7]: 93 nM | IC50 ([8]; literature value compared with own IC50, read-out: reported value at sst2 (Hocart et al.)): 26 nM

Calcium release tested in vitro in HEK-sst2 cells (function) [1]: Antagonist | sst2-internalization tested in vitro in HEK-sst2 cells (function) [2]: Antagonist | IC50 [9]: 61 ± 14 nM | IC50 [10]: > 1000 nM | IC50 [11]: 10 ± 3.5 nM | IC50 [12]: 715 ± 137 nM
Structure (SMILES): C[C@@H](O)[C@@H]1NC(=O)[C@H](CCCCN)N(C)C(=O)[C@@H](Cc2c[nH]c3ccccc23)NC(=O)[C@H](Cc2ccc(O)cc2)NC(=O)[C@H](NC(=O)[C@@H](N)Cc2ccc(Cl)cc2)CSSC[C@@H](C(=O)N[C@@H](Cc2ccc3ccccc3c2)C(N)=O)NC1=O [compound 8, H2N-Cpa-c[DCys-Tyr-DTrp-NMeLys-Thr-Cys]-2Nal-NH2, reference compound] (H-[Phe(4-Cl)][dC]Y[dW][NMeK]TC[2Nal]-NH2; disulfide 2-7)
increase of binding affinity at sst2 versus 7 in Hocart et al. assay [8]: 5 fold
